Results on two compounds are retold here after patent US10822322B2 (OCEANS LTD., priority 2016, dated 2020).

One data set concerns A549 (lung carcinoma). Put plainly: CIMA assay (tetrazolium reduction, cell viability), A549. The data set is classed as cell-based, human. Here is the method: (§1) Stock solutions of the extracts were prepared in dimethylsulfoxide (DMSO) at 10 mg/mL and stored in 200 μl aliquots at −20° C. until analysis. This preparation ensured that the DMSO delivered to cells in culture never exceeded 1%.
(§2) Prepared extracts were assessed following chronic exposure conditions in which cells were seeded at 2×10^3 cells/well (96 wells-plate) and incubated with test compounds for 72 h. Each compound was evaluated over a range of concentrations (0, 10, 25, 50 or 100 μg/ml). Cell proliferation was initially assessed using a standard colorimetric indicator of metabolic activity (CIMA) assay. In this assay, tetrazole reduction was evaluated as a measure of metabolic function that evaluates mitochondrial activity to determine the extent of cell proliferation within a culture. This assay is based on the reduction of yellow tetrazolium salt to purple formazan by mitochondrial reductases enzyme in viable cells, resulting in a color changed that confers a change in absorbance. Six human cell lines were selected for primary evaluation: U373 (glioblastoma-astrocytoma), A549 (lung carcinoma), THP-1 (acute monocytic leukemia), MCF7 (mammary gland adenocarcinoma), SKOV3 (ovarian adenocarcinoma), and CCD1079SK (fibroblast, noncancerous but proliferating) (see FIG. 2 and Table 2). Table 3 expresses the IC50 for each extract.
(§3) These sub-fractions were again subjected to the bioassay evaluation presented above. Results are expressed in Table 8 as % viability (means±standard deviation of three replicates), with LD50/IC50 values in Table 9. […] The maximum DMSO concentration was 1% at 100 μg/ml with 5% SDS used as a known toxic inducer.

Another data set concerns PC3. The data set can be described thus: CIMA assay (tetrazolium reduction, cell viability), PC3. Type of data set: cell-based.
For data set [1], the system named is MCF7 (mammary gland adenocarcinoma). The data set can be described thus: CIMA assay (tetrazolium reduction, cell viability), MCF7. The data set is classed as cell-based, human. Here is the method:
as §1
as §2, with “extract. […]” for “extract.”

Data set [2] relates to SKOV3 (ovarian adenocarcinoma). The data set can be described thus: CIMA assay (tetrazolium reduction, cell viability), SKOV3. Type of data set: cell-based, human. Here is the method: as §1, §2, §3
Data set [3] relates to U373 (glioblastoma-astrocytoma). The data set can be described thus: CIMA assay (tetrazolium reduction, cell viability), U373. The data set is classed as cell-based, human. Here is the method: as §1, §2, §3
In data set [4] the test system is THP-1 (acute monocytic leukemia). Put plainly: CIMA assay (tetrazolium reduction, cell viability), THP-1. Type of data set: cell-based, human. Here is the method:
as §1, §2, §3

The test system of data set [5] is CCD1079SK (fibroblast, noncancerous but proliferating). Put plainly: CIMA assay (tetrazolium reduction, cell viability), CCD1079SK. Type of data set: cell-based, human. The procedure: as §1, §2, §3
Assay in data set [6]: as above
Type of data set: cell-based, human. To be noted: human. Here is the method:
as §1, §2, §3

The test system of a further data set is MDA-MB. The data set can be described thus: CIMA assay (cell viability), MDA-MB. Type of data set: cell-based.
[7] abbreviates: Homo sapiens, A549, read-out: average cell viability.
[8] abbreviates: Homo sapiens, PC-3, read-out: average cell viability.
Where [9] appears, read: Homo sapiens, SK-OV-3, read-out: average cell viability.
Where [10] appears, read: Homo sapiens, U373 MG, read-out: average cell viability.
Where [11] appears, read: Homo sapiens, THP-1, read-out: average cell viability.

The structures appear in SMILES notation.

Take `CCCCCCCCCCCCOS(=O)(=O)[O-].[Na+]` [SDS 5%, reference compound]: the “% viability AVG” value in the data set with A549 (lung carcinoma) turned out to be 66.2%; with PC3, 94.4%; in data set [1] it was 93.7%; in [2], 90.7%; in data set [3], 78.5%; in [4], 39.9%. The “% viability AVG” value in [5] is given as 87.9%. For the same compound, the figures for the cell viability AVG in the data set on A549 (lung carcinoma) and in the data set with PC3 were 68.7% and 77.3%, respectively.
As a reminder, the viability is a read-out of living cells in per cent, often relative to untreated cells. As to `CCCCCC(O)C(O)/C=C/C1CCCCCCCC(=O)O1` (stereo not drawn) [compound 31-34-5, 12,13-dihydroxy-10-octadecen-9-olide], the viability at 1 µg/mL with A549 (lung carcinoma) (setting [7]) stood at 95%; in the data set on PC3 (setting [8]), 100%; in data set [2] (setting [9]) it was 97%; in [3] (setting [10]), 90%; in data set [4] (setting [11]) it was 96%; in the data set on MDA-MB (1 Ug/mL), 101%. Further, the viability at 10 µg/mL in the data set with A549 (lung carcinoma) (setting [7]) was 93%; with PC3 (setting [8]), 93%; in [2] (setting [9]), 97%; in data set [3] (setting [10]), 85%; in data set [4] (setting [11]) it was 84%; in the data set with MDA-MB (10 Ug/mL) it was 96%. The viability at 50 µg/mL in the data set on A549 (lung carcinoma) (setting [7]) amounted to 92%; in the data set with PC3 (setting [8]), 97%; in data set [2] (setting [9]), 94%; in [3] (setting [10]) it was 68%; in data set [4] (setting [11]) it was 68%; in the data set on MDA-MB (50 Ug/mL), 66%. Also, the viability at 100 µg/mL with A549 (lung carcinoma) (setting [7]) was found to be 61%; with PC3 (setting [8]), 19%; in data set [2] (setting [9]) it was 85%; in data set [3] (setting [10]) it was 3%; in data set [4] (setting [11]), 44%; in the data set with MDA-MB (100 Ug/mL) it was 20%. The viability at 72 h, 1 µg/mL in [6] came to 91%. Moreover, in data set [6], the viability at 72 h, 10 µg/mL was determined as 84%. Further, in [6], the viability at 72 h, 50 µg/mL was determined as 90%. Besides, the viability at 72 h, 100 µg/mL in [6] was 17%. Moreover, the “fold change viability (AVG)” value is 1.05 in the data set with MDA-MB (10 ug/mL) and 0.72 in the data set with MDA-MB (50 ug/mL).
